Data as given in patent US20170318812A1, “Plant and Crop Growth Regulating/Biostimulant Formulations and Methods of Use” (Arysta Lifescience North America, LLC, priority 2014, published 2017).
Where “and” joins values, the source holds several entries; their conditions need not be identical. Identical values can stand only once.

Tests used:
[1] = tested on: SORVU Sorghum bicolor (Grain sorghum); assay: Ipfencarbazone biostimulant effect, early post emergence foliar application, greenhouse pots, plant height: sorghum; format: in vivo; conditions: for Plant HEIGHT, Mean / Plant HEIGHT, single plots: Grain sorghum DKB 590, 15 DA-A; for HEIGHT, percent of untreated check (APoC) / HEIGHT, treatment mean / HEIGHT, single plots (replicates): SORVU DKB 590
Description: (§1) The original objective of this Example was to evaluate the herbicidal effect of ipfencarbazone when applied as a post emergent treatment to a range of selected crops and weeds. Unexpectedly, crop plant growth stimulation was observed. The actual species of weeds and crops are listed in the summary data tabulated below and in FIGS. 1-13. By convention each plant species has a Bayer code (5-letter name) with the scientific name for the plant referenced in FIGS. 1-13. In each Figure, each tray contains the same configuration of weeds and/or crops. In each Figure there is one replication of each treatment (six treatments in total). The top three photographs in each Figure show the Bayer Codes and bottom three photographs are aligned with the top three facilitating viewing of the same plant species. Throughout the Examples various abbreviations as conventional shorthand notation and will be appreciated by those skilled in the art. Some exemplary abbreviations include, “CV”=Co-efficient of Variation,” “LSD”=Least Significant Difference” (G/L (gram per L) AND GA/L (gram of active ingredient per L); “SC”=suspension concentrate formulation. The diluent in all treatments was water. By convention factors that are identical in all treatments (e.g. diluent and surfactant) are not listed in each treatment.
(§2) Methods: The indicated size pots (see Tables below) are filled with a specific soil, the soil properties being indicated below. The referenced crops and weeds are planted by hand in each pot. […] The experiments include six treatments each replicated three times on each crop/weed species. At a specific time after emergence each crop and weed species was treated with ipfencarbazone plus a non-ionic surfactant (NIS). In the present Example, the surfactant employed was ENERGIC™ (non-ionic surfactant). The application timing is indicated in each of the Tables (1 or 2 leaf stage) below. Ipfencarbazone plus surfactant was diluted in water and applied at a rate equivalent to about 250 L/ha. Ipfencarbazone was applied using a track sprayer. After treatment, the pots were randomized in a greenhouse. At each assessment (indicated by “days after treatment” or DAT) the height of each plant was measured. The letters next to each mean indicate the level of statistical significance.
(§3) Replications: 3, Untreated treatments: 1, Design: Randomized Complete Block (RCB), Treatment units: Treated ‘Plot’ experimental unit size, Dry Form. Unit: %, Treated ‘Plot’ experimental unit size Width: 1 meter, Treated ‘Plot’ experimental unit size Length: 1.4 meters, Application volume: 250 L/ha, Mix size: 0.15 liters, […]

[2] = tested on: PHSVX Phaseolus vulgaris (Garden bean); assay: Ipfencarbazone biostimulant effect, early post emergence foliar application, greenhouse pots, plant height: dry bean; format: in vivo; conditions: PHSVX PEROLA
Description: as §1, §2, §3

[3] = 62.5 g ai/ha + Energic NIS 0.2 % v/v
[4] = 125 g ai/ha + Energic NIS 0.2 % v/v
[5] = 250 g ai/ha + Energic NIS 0.2 % v/v
[6] = 500 g ai/ha + Energic NIS 0.2 % v/v
[7] = 62.5 g ai/ha, 28 DA-A, plots 102, 205, 302
[8] = 125 g ai/ha, 28 DA-A, plots 103, 206, 305

CC(C)N(C(=O)n1cnn(-c2ccc(Cl)cc2Cl)c1=O)c1ccc(F)cc1F [ARY-0572-001, ipfencarbazone]
Plant HEIGHT, Mean [1, 3]: 59.9 cm
Plant HEIGHT, single plots [1, 3]: 55.3 cm and 68.0 cm and 56.3 cm
Plant HEIGHT, Mean [1, 4]: 59.3 cm
Plant HEIGHT, single plots [1, 4]: 68.7 cm and 55.0 cm and 54.3 cm
Plant HEIGHT, Mean [1, 5]: 61.3 cm
Plant HEIGHT, single plots [1, 5]: 58.0 cm and 65.0 cm and 61.0 cm
Plant HEIGHT, Mean [1, 6]: 60.4 cm
Plant HEIGHT, single plots [1, 6]: 56.0 cm and 66.3 cm and 58.8 cm
Plant HEIGHT, Mean ([1]; 1000 g ai/ha + Energic NIS 0.2 % v/v): 22.7 cm
HEIGHT, percent of untreated check (APoC) ([1]; 62.5 g ai/ha, 15 DA-A): (246.1%)
HEIGHT, treatment mean ([1]; 62.5 g ai/ha, 15 DA-A): 59.9 a cm
HEIGHT, percent of untreated check (APoC) ([1]; 62.5 g ai/ha, 28 DA-A): (296.5%)
HEIGHT, treatment mean ([1]; 62.5 g ai/ha, 28 DA-A): 85.0 a cm and 85.0 cm
HEIGHT, single plots (replicates) [1, 7]: 73.0 cm and 110.7 cm and 71.3 cm
HEIGHT, percent of untreated check (APoC) ([1]; 125 g ai/ha, 15 DA-A): (243.8%)
HEIGHT, treatment mean ([1]; 125 g ai/ha, 15 DA-A): 59.3 a cm
HEIGHT, percent of untreated check (APoC) ([1]; 125 g ai/ha, 28 DA-A): (277.1%)
HEIGHT, treatment mean ([1]; 125 g ai/ha, 28 DA-A): 79.4 a cm and 79.4 cm
HEIGHT, single plots (replicates) [1, 8]: 102.7 cm and 71.3 cm and 64.3 cm
HEIGHT, percent of untreated check (APoC) ([1]; 250 g ai/ha, 15 DA-A): (252.1%)
HEIGHT, treatment mean ([1]; 250 g ai/ha, 15 DA-A): 61.3 a cm
HEIGHT, percent of untreated check (APoC) ([1]; 250 g ai/ha, 28 DA-A): (355.0%)
HEIGHT, treatment mean ([1]; 250 g ai/ha, 28 DA-A): 101.8 a cm and 101.8 cm
HEIGHT, single plots (replicates) ([1]; 250 g ai/ha, 28 DA-A, plots 104, 201, 306): 101.3 cm and 104.0 cm and 100.0 cm
HEIGHT, percent of untreated check (APoC) ([1]; 500 g ai/ha, 15 DA-A): (248.2%)
HEIGHT, treatment mean ([1]; 500 g ai/ha, 15 DA-A): 60.4 a cm
HEIGHT, percent of untreated check (APoC) ([1]; 500 g ai/ha, 28 DA-A): (266.7%)
HEIGHT, treatment mean ([1]; 500 g ai/ha, 28 DA-A): 76.4 a cm and 76.4 cm
HEIGHT, single plots (replicates) ([1]; 500 g ai/ha, 28 DA-A, plots 105, 202, 301): 44.7 cm and 89.7 cm and 95.0 cm
HEIGHT, percent of untreated check (APoC) ([1]; 1000 g ai/ha, 15 DA-A): (93.2%)
HEIGHT, treatment mean ([1]; 1000 g ai/ha, 15 DA-A): 22.7 b cm
HEIGHT, percent of untreated check (APoC) ([1]; 1000 g ai/ha, 28 DA-A): (123.6%)
HEIGHT, treatment mean ([1]; 1000 g ai/ha, 28 DA-A): 35.4 b cm and 35.4 cm
HEIGHT, single plots (replicates) ([1]; 1000 g ai/ha, 28 DA-A, plots 106, 203, 304): 75.3 cm and 9.3 cm and 21.7 cm
HEIGHT, percent of untreated check (APoC) ([2]; 62.5 g ai/ha, 15 DA-A): (105.6%)
HEIGHT, treatment mean ([2]; 62.5 g ai/ha, 15 DA-A): 10.4 a cm and 10.4 cm
HEIGHT, single plots (replicates) ([2]; 62.5 g ai/ha, 15 DA-A, plots 102, 205, 302): 11.7 cm (2×) and 8.0 cm
HEIGHT, percent of untreated check (APoC) ([2]; 62.5 g ai/ha, 28 DA-A, AS square root transformation): (152.2%)
HEIGHT, treatment mean ([2]; 62.5 g ai/ha, 28 DA-A, AS square root transformation (t)): 19.8 a cm and 19.8t cm
HEIGHT, single plots (replicates) [2, 7]: 24.0 cm and 17.3 cm and 19.7 cm
HEIGHT, percent of untreated check (APoC) ([2]; 125 g ai/ha, 15 DA-A): (75.8%)
HEIGHT, treatment mean ([2]; 125 g ai/ha, 15 DA-A): 7.5 ab cm and 7.5 cm
HEIGHT, single plots (replicates) ([2]; 125 g ai/ha, 15 DA-A, plots 103, 206, 305): 0.0 cm and 10.7 cm and 11.8 cm
HEIGHT, percent of untreated check (APoC) ([2]; 125 g ai/ha, 28 DA-A, AS square root transformation): (91.8%)
HEIGHT, treatment mean ([2]; 125 g ai/ha, 28 DA-A, AS square root transformation (t)): 12.0 a cm and 12.0t cm
HEIGHT, single plots (replicates) [2, 8]: 4.3 cm and 16.0 cm and 20.3 cm
HEIGHT, percent of untreated check (APoC) ([2]; 250 g ai/ha, 15 DA-A): (5.6%)
HEIGHT, treatment mean ([2]; 250 g ai/ha, 15 DA-A): 0.6 c cm and 0.6 cm
HEIGHT, single plots (replicates) ([2]; 250 g ai/ha, 15 DA-A, plots 104, 201, 306): 0.0 cm (2×) and 1.7 cm
HEIGHT, percent of untreated check (APoC) ([2]; 250 g ai/ha, 28 DA-A, AS square root transformation): (2.5%)
